According to US9351947B2, “Use of catecholamines and related compounds as anti-angiogenic agents” (National Research Council of Canada, priority 2007, dated 2016):

What was measured:
[1] = topical administration of up to 20%, human eye; cited from earlier work
[2] = 58 μg/kg intravenously, dogs; cited from earlier work
HUVECs [3] = assay: Matrigel endothelial cell capillary-tube formation assay; format: cell-based, human
Description: HUVECs were purchased from Cedarlane Laboratories (Burlington, Canada) and maintained in Endothelial Cell Basal Medium-2 (EBM-2) supplemented with EGM-2 growth factor mixture (Clonetics) and 2% Foetal bovine serum. The cells were cultured at 37° C. under a humidified 95%/5% (v/v) mixture of air and CO2.
Matrigel endothelial cell tube formation assays were performed using BD Matrigel™ (Becton, Dickinson). BD Matrigel™ was thawed at 4° C., and 150 μL were quickly added to each well of a 48-well plate and allowed to solidify for 60 min at 37° C. HUVECs (7×10^4 cells/mL) In EC basal medium-2 (EBM-2) were seeded 250 μL per well onto the surface of the solid BD Matrigel™ in the presence of the compounds to be tested. The cells were incubated for 22 h at […] in a 5% CO2 incubator. Tube formation was monitored by using a Leitz Labovert (Leitz, Wetzlar, Germany) inverted microscope. Two randomly selected two microscopic fields were photographed with a digital camera (Nikon, COOLPICKS 995). The total length of tube structures in each photograph was measured using ImageJ™ free software (http://rsb.info.nih.gov/ij/) and was normalized to that of control with no test compound. Each reported value represents the average of total six photographs from three independent experiments.

HUVECs [4] = assay: Invasion of HUVECs through Matrigel-coated filter (Matrigel Invasion Chambers); format: cell-based, human
Description: HUVECs were purchased from Cedarlane Laboratories (Burlington, Canada) and maintained in Endothelial Cell Basal Medium-2 (EBM-2) supplemented with EGM-2 growth factor mixture (Clonetics) and 2% Foetal bovine serum. The cells were cultured at 37° C. under a humidified 95%/5% (v/v) mixture of air and CO2. Invasion of endothelial cells was measured using BD BioCoatTM Growth Factor Reduced MatrigelTM Invasion Chambers (Beckton-Dickinson; […]). EBM-2 medium (500 μL each) was placed into the lower wells. HUVECs (2.5×10^4) in EBM-2 serum-free medium (500 μL) were seeded into each of the upper wells and incubated in the presence of a test compound. HUVECs were allowed to migrate for 36 h at 37° C. in an atmosphere of 95% air/5% CO2. HUVECs that remained on the upper surface of the filter were removed using a cotton swab. HUVECs that had migrated to the lower surface of the filters were fixed with methanol, stained with 0.1% crystal violet/20% (v/v) methanol and examined using a Leitz Labovert (Leitz, Wetzlar, Germany) inverted microscope after mounting on a slide. Three randomly selected microscopic fields were digitally captured using a Nikon […] 995 digital camera and the number of HUVECs in each photograph were directly counted. Each reported value represents the average and standard deviation of a total […] from two independent experiments.

[5] = Optical stability (racemization) in eye drop formulations, 10 days at 55° C., chiral HPLC; format: physicochemical; details: for % optical purity: 1.7 mg/mL, pH 6.0, starting material 99.90%
Description: The optical isomers of (S)-isoproterenol bitartrate and (S)-isoproterenol dipivalate hydrochloride were separated by HPLC using Shiseido chiral CD-Ph column (250×4.6 mm; 5 μm; isocratic 60:40 of 0.5 M sodium perchlorate/water and acetonitrile; flow rate, 1.0 mL/min). The elution profile was monitored by the absorption at 223 nm for isoproterenol bitartrate and 264 nm for isoproterenol dipivalate hydrochloride. The optical impurities were quantitated by the absorbance at 223 nm for isoproterenol bitartrate and 264 nm for isoproterenol dipivalate hydrochloride and by using a curve fitting software TABLECurve2D (Systat). The impurities of (R)-isoproterenol bitartrate and (R)-isoproterenol dipivalate hydrochloride were estimated as […], respectively. Thus, the racemization induced during synthesis and purification was minimal, if it occurred.
Table 2 describes the optical purities of (S)-isoproterenol and (S)-isoproterenol dipivalate after incubation in various eye drop formulations for 10 days at 55° C. and compared with those before incubation. The incubation for 10 days at 55° C. corresponds to the incubation for 167 days at 22° C.

[6] = Body weight of rats with eye drop treatment; format: in vivo, Sprague-Dawley rats
Source text: Prevention of diabetic retinopathy by (S)-isoproterenol […] drop was studied using a rat model. […] Animal weights were monitored every week.

[7] = Groups I vs II and III vs IV
Description: Two-month-old male Sprague-Dawley rats were purchased from Charles River, Canada. They were housed in the Biotechnology Research Institute (BRI)-animal facility. […] Diabetes was induced in male Sprague-Dawley rats weighing approximately 200 to 250 g by a single intraperitoneal injection of the beta-cell toxin, Streptozotocin (STZ) (Sigma, St. Louis, Mich.), at a dose of 60 mg/kg body weight in 0.1M citrate buffer pH 4.5. Non-diabetic control rats received citrate buffer only.
One week following induction of diabetes, glucose levels were determined in the blood sampled from the tail vein using a blood glucose monitoring system (Ascensia ELITE Blood Glucose Meter, Bayer Inc, Toronto, ON, Canada). Since the limit of detection of the blood glucose meter was 33 mM, any value above that has been assigned a maximum value of 35 mM. Only animals with blood glucose levels higher than 15 mM were retained in the study.
Eye drops or vehicle were administered twice a day, seven days a week, on the cornea of different groups of rats, with a minimum interval of 7 h between the two treatments. To promote weight gain and limit hyperglycemia, diabetic rats were injected sub-cutaneously with 2 IU ultralente insulin (Humulin, Eli Lilly, Toronto, ON, Canada) three times a week. Animal weights were monitored every week.

[8] = humans, cited from earlier work
[9] = 17.6% eye drop, rabbit; cited from earlier work
[10] = large intravenous dose; cited from earlier work
[11] = mouse, in vivo, iv; cited from earlier work

CC(C)NC[C@@H](O)c1ccc(O)c(O)c1.Cl [(S)-isoproterenol hydrochloride]
lowering of intra-ocular pressure [1]: did not show any indication to lower intra-ocular pressure

CC(C)NCC(O)c1ccc(OC(=O)C(C)(C)C)c(OC(=O)C(C)(C)C)c1 (racemic) [(R,S)-isoproterenol dipivalate]
cardiovascular responses [2]: the same responses as those of (R,S)-isoproterenol

CC(C)NC[C@@H](O)c1ccc(O)c(O)c1 [(S)-isoproterenol]
anti-angiogenic activity at 95% w/w optical purity (HUVECs [3]; 95% w/w optically pure, total isoproterenol 20 μM, FIG. 3): in the transition from non-antianglogenic to anti-angiogenic
potency (inhibition of capillary tube formation) (HUVECs [3]; angiogenic assay condition used in FIG. 1, 1-50 μM, 22 h): around 10 μM
Activity (anti-angiogenicity) (HUVECs [3]; measured at 20 μM, HUVECs on Matrigel, 22 h): anti-angiogenic activity
optical purity of (S)-isoproterenol at which anti-angiogenic activity was observed (HUVECs [3]; various ratios of (S)- and (R)-isoproterenol, total 20 μM, FIG. 3): at least 97 % w/w
reduction of the invasion of HUVECs in Matrigel (HUVECs [4]; 20 μM): 60%
Activity (anti-invasion) (HUVECs [4]; measured at 20 μM, HUVECs): Anti-invasive
conversion to the (R)-isoform ([5]; 10 days at 55° C.): 2.55%
% optical purity ([5]; 10 days at 55° C., NaCl 8 mg/mL, Benzalkonium chloride 0.04 mg/mL, Tween 80 2.5 mg/mL): 96.68%
% optical purity ([5]; 10 days at 55° C., Povidone 2 mg/mL, Benzalkonium chloride 0.04 mg/mL, D-Mannitol 54.7 mg/mL): 97.90%
% optical purity ([5]; 10 days at 55° C., Povidone 2 mg/mL, D-Mannitol 54.7 mg/mL, Chlorobutanol 1 mg/mL, 2-hydroxypropyl cyclodextrin 10.1 mg/mL): 97.56%
% optical purity ([5]; 10 days at 55° C., Povidone 2 mg/mL, NaCl 8 mg/mL, Benzalkonium chloride 0.04 mg/mL, 2-hydroxypropyl cyclodextrin 10.1 mg/mL): 97.26%
average optical purity after incubating 10 days at 55° C. ([5]; average over the eye drop formulations): 97.35±0.52%
optical purity after 655 days of storage at room temperature ([5]; extrapolated, from 99.90%): 90%
effect on weight gain/loss ([6]; diabetic rats, Group IV vs Group III): no effect
effect on weight gain/loss ([6]; non-diabetic rats, Group II vs Group I): no effect
effect on the blood glucose level and diabetes [7]: does not affect
side effects of topically applied 10% solution ([8]; 10%, topical): brief mild conjunctival hyperemia and irritation
side effects of 20% eye drop ([8]; 20% eye drop): marked conjunctival hyperemia and mild miosis that persisted for several hours
systemic effects (heart rate, blood pressure, hematologic or serum chemistry values, necropsy) [9]: no systemic effects
effects on blood pressure and pulse rate [10]: only slight and transient effects
LD50 [11]: 113 ± 5 mg/kg
